Data: patent publication US20080188554A1, “METHODS OF TREATING AVIAN HYPERTENSION” (Regents of the University of California Office of …, priority 2006, published 2008)
Where two headings read alike, the source gives them in different places. One block for each molecule: values may come before it.

What was measured:
[1] = molecular target: partially purified recombinant chicken sEH (Gallus gallus, UniProt Q45QT1); test: Inhibitor assay with fluorescent substrate PHOME; type: biochemical; details: PHOME 50 μM
Method: Dilutions of enzyme, inhibitors and substrate were made in BisTris-HCl buffer (25 mM, pH 7.0, 0.1 mg/ml BSA). The enzyme was incubated with 20 μL of inhibitor dilutions for 10 min prior to substrate addition. After this incubation, 50 μL of (3-phenyl-oxiranyl)-acetic acid cyano-(6-methoxy-naphthalen-2-yl)-methyl ester (PHOME) at a final concentration of 50 μM (1% final DMSO content per well) was added.
The inhibitor screen occurred in two steps. The first step was incubation with a final inhibitor concentration of 100 nM. Positive hits obtained in this primary screen were then incubated with inhibitors at final concentrations of 1, 10, and 100 nM.

Recombinant chicken sEH [2] = molecular target: T1, Recombinant chicken sEH (Gallus gallus, UniProt Q45QT1); test: Non-radioactive epoxide hydrolase assay (HPLC-MS/MS), specific activity of substrates; type: biochemical; details: for Specific activity: compound as substrate, 50 μM, 30° C., 10 min
Method: The trans-9,10-epoxystearate was purchased (Sigma-Aldrich). A 5 mM solution of each substrate was made in ethanol for the EETs and methanol for the epoxystearate. The substrate solution (1 μL) was added to 100 μL of enzyme preparation in sodium phosphate buffer (0.1 M, pH 7.4) containing 0.1 mg/mL of BSA ([S]final=50 μM). The enzyme was incubated with the substrate at 30° C. for 10 min, and the reaction quenched by addition of 400 μL of methanol. The products were analyzed by HPLC-MS/MS as previously described (Newman, J. W. et al., J. Lipid Res. 43:1563-1578 (2002)) with the following exceptions. A 2.0×20 mm, 3-μm Luna C18 Mercury MS column (Phenomenex, Torrance, Calif.) was used with a 350 μL/min isocratic flow of […] (vol/vol/vol) acetonitrile/water/methanol with 0.1% glacial acetic acid for 2.5 min. Assays were performed in triplicate.

mouse sEH [3] = molecular target: T2, mouse sEH (Mus musculus, UniProt P34914); details: compound as substrate, from Chacos 1983; cited from earlier work
T2 sequence (P34914 1-554): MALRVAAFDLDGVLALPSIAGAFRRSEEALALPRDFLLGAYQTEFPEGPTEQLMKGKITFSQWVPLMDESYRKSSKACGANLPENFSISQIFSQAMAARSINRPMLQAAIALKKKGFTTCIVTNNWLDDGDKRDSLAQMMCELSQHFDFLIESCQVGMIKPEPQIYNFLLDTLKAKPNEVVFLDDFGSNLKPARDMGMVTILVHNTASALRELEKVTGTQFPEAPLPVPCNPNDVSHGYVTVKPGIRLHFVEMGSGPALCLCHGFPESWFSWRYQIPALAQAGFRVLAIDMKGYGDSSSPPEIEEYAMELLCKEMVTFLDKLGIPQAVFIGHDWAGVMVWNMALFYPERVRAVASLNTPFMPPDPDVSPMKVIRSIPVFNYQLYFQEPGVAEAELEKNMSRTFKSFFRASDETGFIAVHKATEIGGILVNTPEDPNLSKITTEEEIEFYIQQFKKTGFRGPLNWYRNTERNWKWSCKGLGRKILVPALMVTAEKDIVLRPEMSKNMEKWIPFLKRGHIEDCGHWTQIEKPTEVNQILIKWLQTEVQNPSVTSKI

Recombinant chicken sEH [4] = molecular target: T1, Recombinant chicken sEH; test: IC50 determination using [3H]-t-DPPO as substrate; type: biochemical
Method: The IC50 values reported herein were determined using racemic [^3H]-trans-1,3-diphenylpropene oxide (t-DPPO) as a substrate (Borhan, B. et al., Anal. Biochem. 231:188-200 (1995)). The inhibitors were synthesized as described (Morisseau, C. et al., Biochem. Pharmacol. 63:1599-1608 (2002)). Extracts of broiler hepatic cytosol or partially purified enzyme was diluted 50-fold in pH 7.4 0.1 M sodium phosphate buffer containing 0.1 mg/mL BSA, then incubated with the inhibitors for 5 min at 30° C. prior to substrate introduction. Prepared samples were incubated at 30° C. for 10 min and stopped as indicated above. Conditions used gave rates that were linear both with time and enzyme concentration. Assays were performed in triplicate. By definition, IC50 is the concentration of inhibitor that reduces enzyme activity by 50%. IC50 was determined by regression with a minimum of two points in the linear region of the curve on either side of the IC50 (for a total of 5 points). The curve was generated from at least three separate studies conducted in triplicate in order to obtain the standard deviation given in the results section.

[5] = test system: chicken sEH phosphatase activity; test: Phosphatase assay; type: biochemical; details: conditions developed for the mammalian enzyme phosphatase assay
Method: The phosphatase substrate, threo-9,10-phosphonooxy-hydroxy-octadecanoic acid was synthesized as previously described (Newman, J. W. et al., Proc. Natl. Acad. Sci. USA 100: 1558-1563 (2003)). The assay was performed and analyzed by HPLC-MS/MS as described (Newman, J. W. et al., Proc. Natl. Acad. Sci. USA 100:1558-1563 (2003)).

sEH = molecular target: T3, sEH (Homo sapiens, UniProt P34913); details: t-DPPO as substrate, from Morisseau 2000; cited from earlier work
T3 sequence (P34913 1-555): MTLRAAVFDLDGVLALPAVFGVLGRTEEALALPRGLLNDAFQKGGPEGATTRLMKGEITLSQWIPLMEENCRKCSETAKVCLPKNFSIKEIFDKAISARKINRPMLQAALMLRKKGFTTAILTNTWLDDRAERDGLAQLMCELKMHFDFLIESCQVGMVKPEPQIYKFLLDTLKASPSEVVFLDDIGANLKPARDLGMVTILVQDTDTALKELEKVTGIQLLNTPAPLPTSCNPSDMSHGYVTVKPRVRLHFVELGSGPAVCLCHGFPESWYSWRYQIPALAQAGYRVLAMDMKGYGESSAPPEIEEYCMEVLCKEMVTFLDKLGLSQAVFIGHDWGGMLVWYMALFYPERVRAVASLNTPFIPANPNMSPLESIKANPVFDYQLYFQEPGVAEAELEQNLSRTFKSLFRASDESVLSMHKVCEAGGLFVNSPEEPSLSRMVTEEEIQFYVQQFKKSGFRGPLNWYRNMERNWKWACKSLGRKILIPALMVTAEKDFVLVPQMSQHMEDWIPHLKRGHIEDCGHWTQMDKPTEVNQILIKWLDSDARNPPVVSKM

Recombinant chicken sEH [6] = molecular target: T1, Recombinant chicken sEH; test: Radiotracer epoxide hydrolase activity and kinetic parameters using t-DPPO as substrate; type: biochemical
Method: (§1) Epoxide hydrolase activity was measured using racemic [^3H]-trans-1,3-diphenylpropene oxide (t-DPPO) as substrate (Borhan, B. et al., Anal. Biochem. 231:188-200 (1995)). t-DPPO was previously synthesized and purified Borhan, B. et al., Anal. Biochem. 231:188-200 (1995)). 1 μL of a 5 mM solution of [^3H]t-DPPO in DMF was added to 100 μL of enzyme preparation in sodium phosphate buffer (0.1 M, pH 7.4) containing 0.1 mg/mL of BSA ([S]final=50 μM). The enzyme was incubated at 30 °C for 10 min, and the reaction quenched by addition of 60 μL of methanol and 200 μL of isooctane, which extracts the remaining epoxide from the aqueous phase. Extractions with 1-hexanol were performed in parallel to assess the possible presence of glutathione transferase activity which could also transform the substrate (Borhan, B. et al., Anal. Biochem. 231:188-200 (1995)). The activity was followed by measuring the quantity of radioactive diol formed in the aqueous phase using a scintillation counter (Wallac Model 1409, Gaithersburg, Md.). Assays were performed in triplicate.
A solution of [^3H] t-DPPO (1 μL in DMF) was added to 100 μL of enzyme preparation in sodium phosphate buffer (0.1 M, pH 7.4) containing 0.1 mg/mL of BSA ([S]final=50 μM). The Km determination was performed by fitting the data to the Michaelis-Menten equation using the nonlinear regression algorithm in SigmaPlot (SPSS, Inc., Chicago, Ill.) with an R-squared value of at least 0.97. The standard deviation was generated by performing the experiment three separate times in triplicate.

mouse sEH [7] = molecular target: T2, mouse sEH; details: t-DPPO as substrate, from Morisseau 2000; cited from earlier work
[8] = substrate: c1ccc(CC2OC2c2ccccc2)cc1; test: Radiotracer epoxide hydrolase activity and kinetic parameters using t-DPPO as substrate; type: biochemical; details: other: t-DPPO as substrate; recombinant chicken sEH; pH 7.4; 30.0 °C
Method: as §1
A solution of [^3H] t-DPPO (1 μL in DMF) was added to 100 μL of enzyme preparation in sodium phosphate buffer (0.1 M, pH 7.4) containing 0.1 mg/mL of BSA ([S]final=50 μM). […]

[9] = partially purified recombinant chicken sEH, read-out: Chicken sEH IC50

IC50 [1, 9]: 1.7 ± 0.1 nM
Molecule: C=CCOC1CCC(NC(=O)NC23CC4CC(CC(C4)C2)C3)CC1 (stereo not drawn) [Compound 982]

IC50 [1, 9]: 5.3 ± 0.2 nM
Molecule: CC(C)=CCOC1CCC(NC(=O)NC23CC4CC(CC(C4)C2)C3)CC1 (stereo not drawn) [Compound 983]

Activity relative to the activity measured with t-DPPO (Recombinant chicken sEH [2]): less than 1/30
Specific activity (Recombinant chicken sEH [2]): 24.5 ± 2.1 nmol/min/mg
Molecule: CCCCCC1OC1C/C=C\C/C=C\C/C=C\CCCC(=O)O (stereo not drawn) [14,15-EET]
Specific activity (mouse sEH [3]): 1260.0 nmol/min/mg

Molecule: O=C(O)CCCCCCCCCCCNC(=O)NC12CC3CC(CC(C3)C1)C2 [AUDA, 12-(3-Adamantan-1-yl-ureido)dodecanoic acid]
IC50 (Recombinant chicken sEH [4]): 13.7 nM

IC50 [1, 9]: 3.5 ± 0.1 nM
Molecule: O=C(Nc1ccc(C(F)(F)F)cc1)NC1CCC(OCc2c(F)cccc2F)CC1 (stereo not drawn) [Compound 1289]

IC50 [1, 9]: 2.4 ± 0.1 nM
Molecule: O=C(Nc1cccc(Br)c1)NC1CCC(OCc2c(F)cccc2F)CC1 (stereo not drawn) [Compound 1308]

Specific activity (Recombinant chicken sEH [2]): 12.0 ± 1.2 nmol/min/mg
Molecule: CCCCC/C=C\CC1OC1C/C=C\C/C=C\CCCC(=O)O (stereo not drawn) [11,12-EET]
Specific activity (mouse sEH [3]): 640.0 nmol/min/mg

IC50 [1, 9]: 5.1 ± 0.3 nM
Molecule: O=C(NC1CCCCCCC1)NC1CCC(Oc2ccc(F)cc2)CC1 (stereo not drawn) [Compound 1272]

IC50 [1, 9]: 1.9 ± 0.1 nM
Molecule: O=C(NCCCc1ccccc1)NC1CCC(OCc2c(F)cccc2F)CC1 (stereo not drawn) [Compound 1318]

IC50 [1, 9]: 2.7 ± 0.3 nM
Molecule: O=C(NC1CCCCCC1)NC1CCC(Oc2ccc(F)cc2)CC1 (stereo not drawn) [Compound 1271]

Molecule: threo-9,10-phosphonooxy-hydroxy-octadecanoic acid
Hydrolysis of phosphatase substrate by chicken enzyme [5]: did not hydrolyze

IC50 [1, 9]: 5.7 ± 0.3 nM
Molecule: CCCCCOC(=O)C1CCCC(NC(=O)NC23CC4CC(CC(C4)C2)C3)C1 (stereo not drawn) [Compound 861]

kcat/Km ratio of chicken enzyme, fold lower than human enzyme (Recombinant chicken sEH [6]; compared to human sEH): 20 fold
kcat/Km ratio of chicken enzyme, fold lower than mouse enzyme (Recombinant chicken sEH [6]; compared to mouse sEH): 100 fold
Specific activity (Recombinant chicken sEH [6]; recombinant chicken sEH, mean ± SD of 3 experiments): 823.1 ± 27.3 nmol/min/mg
Molecule: c1ccc(CC2OC2c2ccccc2)cc1 (racemic) [t-DPPO, trans-1,3-diphenylpropene oxide]
Km (sEH): 6.2 µM
Specific activity (sEH): 4500 ± 200.0 nmol/min/mg
kcat (sEH): 4.3 ± 0.3 s⁻¹
Km (mouse sEH [7]): 4.3 µM
Specific activity (mouse sEH [7]): 17000 ± 300.0 nmol/min/mg
kcat (mouse sEH [7]): 18.0 ± 0.3 s⁻¹

IC50 [1, 9]: 5.2 ± 0.2 nM
Molecule: CCCCCOC(=O)C1CCC(NC(=O)NC23CC4CC(CC(C4)C2)C3)CC1 (stereo not drawn) [Compound 863]

Molecule: O=C(O)CCCCCCCCCCCNC(=O)NC12CC3CC(CC(C3)C1)C2 [Compound 700]
IC50 ([1]; Chicken sEH IC50, partially purified recombinant chicken sEH): 12.6 ± 1.6 nM

IC50 [1, 9]: 3.5 ± 0.1 nM
Molecule: O=C(NCCCc1ccccc1)NC1CCC(Oc2ccc(F)cc2)CC1 (stereo not drawn) [Compound 1270]

IC50 [1, 9]: 2 ± 0.1 nM
Molecule: O=C(Nc1cccc(Cl)c1)NC1CCC(OCc2c(F)cccc2F)CC1 (stereo not drawn) [Compound 1302]

IC50 [1, 9]: 2.6 ± 0.1 nM
Molecule: O=C(NC1CCCCCC1)NC1CCC(Oc2ccc(F)cc2)CC1 (stereo not drawn) [Compound 1515]

IC50 [1, 9]: 4.4 ± 0.1 nM
Molecule: O=C(Nc1cccc(C(F)(F)F)c1)NC1CCC(OCc2c(F)cccc2F)CC1 (stereo not drawn) [Compound 1285]

Specific activity (Recombinant chicken sEH [2]): 11.6 ± 0.1 nmol/min/mg
Molecule: CCCCC/C=C\C/C=C\CC1OC1C/C=C\CCCC(=O)O (stereo not drawn) [8,9-EET]
Specific activity (mouse sEH [3]): 370.0 nmol/min/mg

B1: Recombinant chicken sEH (Gallus gallus) (protein)
chain: MARRFALFDLGGVLFGPGLQHFLGSCERSYALPRNFLRDVLFAGGSDSPHAKVMRGQITLSQLFLEVDEGCRQHASTAGITLPTTFSIAHVFEEMAAKGTLNAPLLRAASMLRRNGFKTCVFTNNWVDDSMGRLFTSSLLTVVQRHFDLLIESCRVGLHKPDPRIYTYALEVLQAQPQEVIFLDDIGENLKPAREMGMATILVRDTDTVLKELQELSGVQLLQQEEPLPTTCDPATMSHGYVPIRPGVQLHFVEMGHGPAICLCHGFPESWLSWRYQIPALADAGFRVIALEMKGYGESTAPPEIEEYSQEQICKDLTIFLDKLGIPQAVFIGHDWGGAVVWNMALFYPERVRAVASLNTPYRPADPTVDIVETMKSFPMFDYQFYFQEPGVAEAELEKDIGRTLKALIRSTRPEDRLHSVPGLLGVQERGGLLVGFPEDIPESLILHGAELQYYIERFQRSGFRGPLNWYRNMRPNWRWALSAKDRKILMPALMVTAGKDVVLLPSMSKGMEEWIPQLRRGHLEACGHWTQMERPAALNRILVEWLEGLPPDGAMLRVSRL
Km [8]: 25.3 µM
